Experiment [1] concerns P30 (H460 cells selected at 30 nM paclitaxel). Put plainly: In vitro cytotoxicity assay of resistant cell line P30. Format: cell-based, human. To be noted: for IC50: P30 cells (H460 selected at 30 nM paclitaxel), MTT after 48 h; for P30 Resistance Factor: P30 cells relative to parental H460. As to the method: (§1) A panel of cells lines obtained from American Type Culture Collection (Rockville, Md., USA) was initially assayed against CA-4 to screen for drug sensitivity. […] H460 cells were grown and maintained in RPMI-1640 supplemented with penicillin-streptomycin, Fungizone® and 10% heat inactivated fetal bovine serum (Invitrogen, Carlsbad, Calif., USA) and maintained at 37° C. humidified 5% CO2 atmosphere. H460 parental cell line was selected for resistance to CA-4, paclitaxel or vinblastine by incubation with stepwise increments of each drug, beginning at 2 nM. Cells were treated with the drugs for 24 h, once a week, and every 2-3 weeks, drug dose was increased by 2 nM increments until 30 nM drug resistance was reached. To select non-MDR resistant cell lines, cells were evolved in the presence of verapamil, an inhibitor of P-glycoprotein (P-gp) drug efflux pump that produces a MDR phenotype. Resistance was maintained by acute 24 h exposure to the corresponding drug and verapamil once a month. All cells used for the experiments were grown logarithmically in drug-free medium at least a week before experiments.
(§2) Cytoxicity assays was assessed using a modified MTT assay (Mosmann, 1983). MTT (3-(4,5-dimethylthiazol-2-yl)-2,5-diphenyl tetrazolium bromide, MTT) was purchased from Sigma (St. Louis, Mo., USA). For each drug treatment, triplicate wells were seeded (5.0×10^3/well) and conditioned overnight. Drugs were prepared by serial dilution with RPMI media and added to the corresponding wells. After 48 h, the MTT assay was performed. Percentage survival was calculated as the OD560 of the treated sample divided by the OD560 of the untreated control cell line. Cell lines were tested with cisplatin to test for non-MDR phenotype.
(§3) C30, P30, and V30 cell lines represent H460 parental cells selected at 30 nM CA-4, paclitaxel, and vinblastine, respectively. […] Cisplatin, an anti-cancer agent with a non-tubulin-binding mode of action was assayed against the cell lines to test for […].

For a further experiment, the system named is NCI-H460. Put plainly: In vitro cytotoxicity (modified MTT) assay, H460 parental. Format: cell-based, human. To be noted: MTT after 48 h. As to the method: (§4) A panel of cells lines obtained from American Type Culture Collection (Rockville, Md., USA) was initially assayed against CA-4 to screen for drug sensitivity. The human non-small cell lung carcinoma (NSCLC), NCI-H460, was selected for resistance based on significant cytotoxicity. H460 cells were grown and maintained in RPMI-1640 supplemented with penicillin-streptomycin, Fungizone® and 10% heat inactivated fetal bovine serum (Invitrogen, Carlsbad, Calif., USA) and maintained at 37° C. humidified 5% CO2 atmosphere. H460 parental cell line was selected for resistance to CA-4, paclitaxel or vinblastine by incubation with stepwise increments of each drug, beginning at 2 nM. Cells were treated with the drugs for 24 h, once a week, and every 2-3 weeks, drug dose was increased by 2 nM increments until 30 nM drug resistance was reached. To select non-MDR resistant cell lines, cells were evolved in the presence of verapamil, an inhibitor of P-glycoprotein (P-gp) drug efflux pump that produces a MDR phenotype. Resistance was maintained by acute 24 h exposure to the corresponding drug and verapamil once a month. All cells used for the experiments were grown logarithmically in drug-free medium at least a week before experiments.
as §2
To select a moderately sensitive cell line for drug-resistance, a panel of susceptible tumor cell lines was screened for CA-4 cytotoxicity. Table 1 depicts the average in vitro cytotoxicity (IC50) values for three independent experiments with each experiment run in triplicate.

Another experiment deals with CEM. As to the kind of experiment: In vitro cytotoxicity (modified MTT) assay, CEM. Format: cell-based. To be noted: Acute Lymphoblastic Leukemia, MTT after 48 h, average of three independent experiments in triplicate. As to the method: as §4, with “All cells used for the experiments were grown logarithmically in drug-free medium at least a week before experiments.” left out
(§5) Cytoxicity assays was assessed using a modified MTT assay (Mosmann, 1983). […] Percentage survival was calculated as the OD560 of the treated sample divided by the OD560 of the untreated control cell line. […]

A further experiment deals with BXPC3. Put plainly: In vitro cytotoxicity (modified MTT) assay, BXPC3. Format: cell-based. As to conditions: BXPC3, Pancreatic Adenocarcinoma; MTT after 48 h; average of three independent experiments in triplicate. The procedure: as §4, with “All cells used for the experiments were grown logarithmically in drug-free medium at least a week before experiments.” left out
as §5

The next experiment has as its system MOLT4. Put plainly: In vitro cytotoxicity (modified MTT) assay, MOLT4. Format: cell-based. As to conditions: MOLT4, Acute Lymphoblastic Leukemia; MTT after 48 h; average of three independent experiments in triplicate. As to the method: as §4, with “All cells used for the experiments were grown logarithmically in drug-free medium at least a week before experiments.” left out
as §5

Experiment [2] deals with C30 (H460 cells selected at 30 nM CA-4). Put plainly: In vitro cytotoxicity assay of resistant cell line C30. Format: cell-based, human. To be noted: for IC50: C30 cells (H460 selected at 30 nM CA-4), MTT after 48 h; for C30 Resistance Factor: C30 cells relative to parental H460. As to the method:
as §1, §2, §3

Another experiment has as its system DU145. Put plainly: In vitro cytotoxicity (modified MTT) assay, DU145. Format: cell-based. To be noted: DU145, Prostate Carcinoma; MTT after 48 h; average of three independent experiments in triplicate. As to the method:
as §4, with “All cells used for the experiments were grown logarithmically in drug-free medium at least a week before experiments.” left out
as §5

Experiment [3] deals with V30 (H460 cells selected at 30 nM vinblastine). As to the kind of experiment: In vitro cytotoxicity assay of resistant cell line V30. Format: cell-based, human. To be noted: for IC50: V30 cells (H460 selected at 30 nM vinblastine), MTT after 48 h; for V30 Resistance Factor: V30 cells relative to parental H460. The procedure: as §1, §2, §3
The subject of a further experiment is HT29. Put plainly: In vitro cytotoxicity (modified MTT) assay, HT29. Format: cell-based. To be noted: HT29, Colorectal Adenocarcinoma; MTT after 48 h; average of three independent experiments in triplicate. As to the method: as §4, with “All cells used for the experiments were grown logarithmically in drug-free medium at least a week before experiments.” left out
as §5

For a further experiment, the system named is MCF7. Put plainly: In vitro cytotoxicity (modified MTT) assay, MCF7. Format: cell-based. As to conditions: MCF7, Mammary Gland Adenocarcinoma; MTT after 48 h; average of three independent experiments in triplicate. The procedure: as §4, with “All cells used for the experiments were grown logarithmically in drug-free medium at least a week before experiments.” left out
as §5

[4] abbreviates: H460 parental cells, Table 2, read-out: H460 wild-type IC50.
Where [5] appears, read: Homo sapiens, NCI-H460, H460 parental cells, Table 2, read-out: H460 wild-type IC50.

The structures appear in SMILES notation. Entries after “also recorded” stand apart in the source; their conditions may differ. Like-named read-outs stand apart in the source and are kept apart here.

Consider `COc1ccc(/C=C\c2cc(OC)c(OC)c(OC)c2)cc1O` [CA-4, Combretastatin A-4], for which the IC50 came out at 8.5 ± 0.2 nM in experiment [1]; 7.3 nM in the experiment with NCI-H460 (H460, Non-Small Cell Lung Carcinoma, Table 1 screen, average of three independent experiments in triplicate, read-out: IC50); 7 ± 0.6 nM in the experiment with NCI-H460 (setting [4]); 0.25 nM in the experiment on CEM; 57000 nM in the experiment with BXPC3; 4.1 nM in the experiment with MOLT4. Besides, the concentration for half-maximal inhibition (IC50) in experiment [2] amounted to 19 nM; in the experiment with DU145, 7.7 nM; in experiment [3], 9.2 ± 0.6 nM; with HT29, 55100 nM; in the experiment on MCF7, 165000 nM.

In the case of `N.N.[Cl][Pt][Cl]` [Cisplatin], the IC50 stood at 25.3 ± 3.1 nM in experiment [1], 20 ± 2.6 nM in the experiment on NCI-H460 (setting [4]), 16.7 ± 3.2 nM in [2] and 21.7 ± 0.6 nM in experiment [3].

With `CC[C@]1(O)C[C@@H]2CN(CCc3c([nH]c4ccccc34)[C@@](C(=O)OC)(c3cc4c(cc3OC)N(C)[C@H]3[C@@](O)(C(=O)OC)[C@H](OC(C)=O)[C@]5(CC)C=CCN6CC[C@]43[C@@H]65)C2)C1` [Vinblastine], the concentration for half-maximal inhibition (IC50) in [1] (Homo sapiens, NCI-H460) was determined as 15.7 ± 4.2 nM; with NCI-H460 (setting [5]) it was 5.9 ± 0.1 nM; in experiment [2] (Homo sapiens, NCI-H460), 6 ± 0.3 nM; in [3] (Homo sapiens, NCI-H460) it was 26.3 ± 2.1 nM. Besides, the “P30 Resistance Factor” value is listed as 2.7 ± 0.7 in [1] and “threefold” in experiment [1] (listed as vinblastine). Also, the “C30 Resistance Factor” value in [2] is 1.0 ± 0.0; in [2] (listed as vinblastine), “negligibly resistant”. The “V30 Resistance Factor” value in experiment [3] is on record as 4.5 ± 0.4; in experiment [3] (listed as vinblastine) it was “fivefold”.

`CC(=O)O[C@H]1C(=O)[C@@]2(C)[C@H]([C@H](OC(=O)c3ccccc3)[C@]3(O)C[C@H](OC(=O)[C@H](O)[C@@H](NC(=O)c4ccccc4)c4ccccc4)C(C)=C1C3(C)C)[C@]1(OC(C)=O)CO[C@@H]1C[C@@H]2O` [Paclitaxel]: the IC50 amounted to 77 ± 4.9 nM in experiment [1] (Homo sapiens, NCI-H460); 8.1 ± 0.4 nM in the experiment on NCI-H460 (setting [5]); 80 ± 2 nM in experiment [2] (Homo sapiens, NCI-H460); 87 ± 3.6 nM in experiment [3] (Homo sapiens, NCI-H460). The “P30 Resistance Factor” value is on record as 9.6 ± 1.0 in experiment [1] and “tenfold” in experiment [1] (listed as paclitaxel). Further, the “C30 Resistance Factor” value in experiment [2] was 9.9 ± 0.6; in experiment [2] (listed as paclitaxel), “tenfold”. For the same molecule, the “V30 Resistance Factor” value is given as 10.8 ± 1.0 in experiment [3] and “eleven fold; also recorded: tenfold” in [3] (listed as paclitaxel).

(Values after patent US20050272824A1, “Methods for monitoring combretastatin resistance” (priority 2004, published 2005).)
